assay: in vitro; conditions: human, hela cells, % viability

SMILES	viability at 28.5 h, 10 µM
COc1cc(F)cc(OC2CCNCC2)c1NC(=O)c1coc2c1C(=O)CCC2 [CBK050351T]	91.5%
COc1cc(F)cc(OC2CCNCC2)c1NC(=O)C1=CC(=O)CC(C)(C)O1 [CBK050352T]	96.9%
COc1ccc(/C=C(\C)C(=O)Nc2c(OC)cc(F)cc2OC2CCNCC2)cc1OC [CBK050353T]	98.6%
Cc1nn(C)c(N2CCNCC2)c1NC(=O)/C=C/c1cccnc1 [CBK050354T]	95.4%
Cc1nn(C)c(N2CCNCC2)c1NC(=O)C1=CC(=O)CC(C)(C)O1 [CBK050362T]	99.9%
O=c1c(N2CCNCC2)nccn1CCc1cccs1 [CBK050382T]	89.3%
COCCn1c(-c2ccc(CN3CCCC3)cc2)cc2onc(C)c2c1=O [CBK050385C]	104%
CCN(CC)C(=O)c1sccc1NS(=O)(=O)Cc1ccccc1[N+](=O)[O-] [CBK050396]	97%
O=C(Nc1ccc(F)cc1)c1ccc(NS(=O)(=O)c2ccc(Br)cc2)cc1 [CBK050400]	103%
CC(=O)Nc1ccc(S(=O)(=O)Nc2ccc(C(=O)Nc3ccc(F)cc3)cc2)cc1 [CBK050401]	111%
CC(=O)Nc1ccc(S(=O)(=O)Nc2ccc(C(=O)N3CCN(C)CC3)cc2)cc1 [CBK050406]	93.1%
CC(=O)Nc1ccc(S(=O)(=O)Nc2cccc(C(=O)O)c2)cc1 [CBK050407]	98.7%
CN1CCN(C(=O)c2c(NS(=O)(=O)/C=C/c3ccccc3)sc3c2CCCC3)CC1 [CBK050417]	94.3%
CN1CCN(C(=O)c2c(NS(=O)(=O)c3cc(F)c(Br)cc3F)sc3c2CCCC3)CC1 [CBK050419]	90.5%
O=C(c1sccc1NS(=O)(=O)c1ccc(Oc2ccccc2)cc1)N1CCOCC1 [CBK050423]	95.3%
CC(=O)Nc1ccc(S(=O)(=O)Nc2ccc(C(=O)O)cc2)cc1 [CBK050427]	91.3%
Cc1ccc(S(N)(=O)=O)cc1C(=O)Nc1nncs1 [CBK050456]	105%
O=S(=O)(Nc1nnn[nH]1)c1ccc(F)cc1 [CBK050473]	104%
O=S(=O)(Nc1ccc(-c2csnn2)cc1)c1ccc(F)cc1 [CBK050482]	92.1%
Cc1nc(NS(=O)(=O)c2c(C)noc2C)sc1C(=O)Nc1ccc(F)cc1 [CBK050551]	113%
CCOC(=O)c1ccccc1NS(=O)(=O)c1ccc(C(F)(F)F)cc1[N+](=O)[O-] [CBK050584]	96.2%
CCOC(=O)c1ccccc1NS(=O)(=O)Cc1ccccc1[N+](=O)[O-] [CBK050594]	92.3%

SMILES	viability at 28.5 h, 10 µM
Cc1ccc(S(=O)(=O)NCC(=O)N2CCOCC2)cc1[N+](=O)[O-] [CBK050597]	98.1%
CCN(CC)C(=O)c1sc2ncccc2c1NS(=O)(=O)c1ccc(C)c([N+](=O)[O-])c1 [CBK050618]	112%
O=C(O)c1sc2ncccc2c1NS(=O)(=O)c1ccc(C(F)(F)F)cc1[N+](=O)[O-] [CBK050647]	118%
O=C(O)c1sc2ncccc2c1NS(=O)(=O)c1cc(Cl)sc1Cl [CBK050650]	78.2%
CCCc1ccc(S(=O)(=O)Nc2c(C(=O)OC)sc3ncccc23)cc1 [CBK050653]	87.2%
CC(=O)Nc1cccc(-c2nccnc2NS(C)(=O)=O)c1 [CBK050740]	108%
O=S(=O)(Nc1nccnc1-c1cccs1)C1CC1 [CBK050764]	93.9%
CC(C)(C)S(=O)(=O)Nc1nccnc1-c1cccs1 [CBK050765]	107%
O=S(=O)(Nc1nccnc1-c1cccs1)c1ccccc1Cl [CBK050775]	94.9%
CN(C)c1ccc(-c2nccnc2NS(=O)(=O)Cc2cccc(Cl)c2)cc1 [CBK050787]	102%
CN(C)c1ccc(-c2nccnc2NS(=O)(=O)c2ccccc2C(F)(F)F)cc1 [CBK050801]	92.8%
COc1ccc(S(=O)(=O)Nc2nccnc2-c2ccc3[nH]ccc3c2)cc1 [CBK050805]	91.6%
c1cnc(-c2nnn[nH]2)c(-c2ccc(COc3ccc4c(c3)OCO4)cc2)n1 [CBK050812]	107%
c1ccc(-c2ccno2)c(OCc2ccc(-c3nccnc3-c3nnn[nH]3)cc2)c1 [CBK050817]	93.6%
c1ccc2cc(OCc3ccc(-c4nccnc4-c4nnn[nH]4)cc3)ccc2c1 [CBK050818]	93.9%
c1ccc2c(c1)ccn2Cc1ccc(-c2nccnc2-c2nnn[nH]2)cc1 [CBK050821]	107%
CN(C)C(=O)c1nccnc1-c1ccc(COc2ccc3c(c2)OCO3)cc1 [CBK050829]	91.1%
O=C(Nc1ccc2c(c1)OCO2)c1nccnc1-c1ccc(COc2ccccc2)cc1 [CBK050834]	109%
O=C(Nc1ccccn1)c1nccnc1-c1ccc(COc2ccccc2)cc1 [CBK050835]	86.1%
O=C(NCc1ccco1)c1nccnc1-c1ccc(COc2ccc3c(c2)CCCC3)cc1 [CBK050851]	89.8%
CC(C)(C)S(=O)(=O)Nc1nccnc1-c1ccc(OCc2ccccc2)cc1 [CBK050886]	89.4%
O=S(=O)(Nc1nccnc1-c1ccc2c(c1)OCO2)c1ccc(Cl)cc1 [CBK050952]	92.4%

SMILES	viability at 28.5 h, 10 µM
N#CCn1c(-c2nonc2N)nc2ccccc21 [CBK050974]	92.3%
CC(C)c1ccc(S(=O)(=O)N2CC3CC2CO3)cc1 (centres unmarked) [CBK050999]	97.3%
COc1cc([C@@H]2c3cc4c(cc3[C@H](O)[C@H]3COC(=O)[C@@H]23)OCO4)cc(OC)c1OC [CBK051004]	36.3%
O=S(=O)(Nc1cccnc1N1CCOCC1)c1ccc(F)cc1 [CBK051009]	96.4%
N#Cc1c[nH]nc1NS(=O)(=O)c1ccc(F)cc1 [CBK051018]	106%
Cc1cc(NS(=O)(=O)c2ccc(F)cc2)n(C)n1 [CBK051021]	108%
Cc1ccnc(NS(=O)(=O)c2ccc(NS(=O)(=O)c3ccc(F)cc3)cc2)n1 [CBK051024]	102%
Cc1c(S(=O)(=O)Nc2ccc(C(=O)c3ccccc3)cc2)cnn1-c1ccccc1 [CBK051034]	96.5%
O=S(=O)(c1ccccc1)c1cncc(N2CCNCC2)n1 [CBK051078C]	89.3%
O=C1CN(S(=O)(=O)c2ccc(F)cc2Cl)CCN1 [CBK051081]	109%
O=C(NCC1COc2ccccc2O1)NC(=O)C1CCNCC1 (centres unmarked) [CBK051096]	91.6%
CN1CCC(C(=O)NC(=O)NCCOc2cccc3ccccc23)CC1 [CBK051100]	90.1%
O=S(=O)(c1ccc(Br)cc1)N1CCCCC1CO (centres unmarked) [CBK051127]	116%
COC(=O)C1CCCCN1S(=O)(=O)c1cccs1 (centres unmarked) [CBK051135]	109%
CCOC(=O)C1CCN(S(=O)(=O)c2cccs2)CC1 [CBK051137]	92.4%
Cc1ccc(S(=O)(=O)c2cncc(N3CCNCC3)n2)cc1 [CBK051166C]	101%
O=C(O)CCC(=O)N1CCCc2ccccc21 [CBK051167]	92.6%
CN1CCN(S(=O)(=O)c2ccc(C(C)(C)C)cc2)CC1 [CBK051237]	106%
CCOC(=O)C1CCN(S(=O)(=O)c2cccc3cccnc23)CC1 [CBK051242]	92.5%
COC(=O)C1CCCCN1S(=O)(=O)c1cccc2cccnc12 (centres unmarked) [CBK051244]	82.2%
COc1ccc([C@@]23CC[C@@H](NC(=O)Nc4ccc(OC)c(C(F)(F)F)c4)C[C@@H]2N(C)CC3)cc1OC [CBK051268T]	107%
COc1ccc([C@@]23CC[C@@H](NC(=O)Nc4cccc(-c5nn[nH]n5)c4)C[C@@H]2N(C)CC3)cc1OC [CBK051273T]	87.8%

SMILES	viability at 28.5 h, 10 µM
COc1ccc(CO)cc1OCc1ccccc1 [CBK051334]	110%
O=S(=O)(c1cc(Cl)sc1Cl)N1CCCCC1CO (centres unmarked) [CBK051422]	87.2%
CC(C)(C)c1ccc([S+]([O-])c2cncc(N3CCNCC3)n2)cc1 (centres unmarked) [CBK051434C]	88.4%
Cc1cc(F)c(S(N)(=O)=O)cc1NC(=O)c1ccc(C(F)(F)F)cc1 [CBK051448]	104%
COCC1=C(C(=O)OC)[C@H](c2ccc(F)c(F)c2)N(C(=O)NCCCN2CCC(c3cccc(NC(C)=O)c3)CC2)C(=O)N1 [CBK051451C]	93.5%
c1ccc(CCN2CCC(c3nc(-c4ccccc4)no3)CC2)cc1 [CBK051454]	89.8%
COc1cccc(-c2noc(C3CCN(CCc4ccccc4)CC3)n2)c1 [CBK051455]	99.7%
Fc1ccc(-c2noc(C3CCN(CCc4ccccc4)CC3)n2)cc1 [CBK051457]	91.3%
COc1cccc(-c2noc(C3CCN(CCc4ccc(F)cc4)CC3)n2)c1 [CBK051461]	121%
Fc1ccc(CCN2CCC(c3nc(-c4cccnc4)no3)CC2)cc1 [CBK051464]	118%
CC(=O)c1ccc(S(=O)(=O)N2CCCCC2CNC(=O)c2ccco2)cc1 (centres unmarked) [CBK051472]	103%
Cc1cc(F)c(S(N)(=O)=O)cc1NC(=O)c1cccc(Br)c1 [CBK051488]	90.9%
O=C(c1nn2c(C(F)(F)F)cc(-c3ccccc3)nc2c1Br)N1CCCCC1 [CBK051497]	97.6%
CCCNC(=O)c1nn2c(C(F)(F)F)cc(-c3ccccc3)nc2c1Cl [CBK051499]	110%
COc1cccc(OC)c1OCCN1CCC(CNC(=O)Nc2cccc(C(F)(F)F)c2)CC1 [CBK051512T]	96.7%
COc1cc(NC(=O)NCC2CCN(CCOc3c(OC)cccc3OC)CC2)cc(OC)c1 [CBK051514]	89.1%
COc1cccc(OC)c1OCCN1CCC(NC(=O)Nc2ccc(Cl)cn2)CC1 [CBK051515]	94.4%
N#Cc1cccc(S(=O)(=O)N2CCCCC2CO)c1 (centres unmarked) [CBK051524]	100%
CNC(=O)C1CCN(S(=O)(=O)c2ccc(C(C)(C)C)cc2)CC1 [CBK051544]	90.3%
CC(C)(C)c1ccc(C(=O)N2CCN(C(=O)CN3CCOCC3)C2)cc1 [CBK051554C]	112%

Reference: publication PMC12040169 (PLOS Biology, 2025)
